Reference: patent publication US5786332A, “Cytokine restraining agents and methods of use in pathologies and conditions associated with altered cytokine levels” (Trega Biosciences, Inc., priority 1995, dated 1998)

What was measured:
[1] = system: Harlan Sprague-Dawley rats; assay: Adult respiratory distress syndrome: LPS-induced PMN count in broncho-alveolar lavage; format: in vivo; settings: 100 μg/kg IP; LPS 5 mg/kg intratracheal; lavage at 6 hr
Experimental: These experiments were performed using a modification of the methods described by Ulich et al., Am. J. Pathol. 141:61-68 (1992) and by Wheelden et al., Lab. Animals 26:29-37 (1992), each of which is incorporated herein by reference. Male Harlan Sprague-Dawley rats were anesthetized using a mixture of 70 mg/kg ketamine and 6 mg/kg rompun injected IP. A 2-3 cm incision was made in the neck of each anesthetized rat and its trachea was exposed by blunt dissection of the surrounding soft tissue. The rats were suspended on a near vertical slab and intratracheal injections were performed by inserting into the exposed trachea, at a point 1 cm posterior to the larynx, a 25 G×1/2 inch needle attached to a 1 cc syringe.
Each rat received 0.5 ml/kg of saline or 0.5 ml/kg of 10 mg/ml (5 mg/kg) LPS endotoxin via slow intratracheal administration. Immediately following administration of the LPS endotoxin, rats were injected IP with 1 ml/kg of either saline (control) or saline containing various concentrations of EX-2 (treated). The rats were maintained in the elevated position for 1-2 min to facilitate distribution of the LPS and saline into the lung. The incisions were closed and the rats were allowed to recover. […]
neutrophils) in the broncho-alveolar lavage fluid were counted in the EX-2-treated rats and compared with the number in the control rats.

[2] = system: Wistar rats; assay: LPS-induced temperature increase (fever); format: in vivo; settings: 6 hr following LPS
Experimental: Male Wistar rats (45-75 days old) were placed in a temperature controlled room held at 26° C., which is thermoneutral for the normal body temperature of rats, and were maintained in the room with free access to food and water for 24 hr prior to testing. On the morning of the study, rats were marked for identification and weighed. The temperature of each rat was determined by placing the animal in a restraining cage designed to minimize stress and inserting a temperature probe (YSI probe #402) 3-5 cm into the animal's rectum. The temperature was recorded 15 sec after the reading stabilized. Measurements were repeated 1 hr later to establish a baseline temperature for each rat.
After the baseline temperatures were established, rats were injected IP with saline, IL-1β or LPS endotoxin.
Rats then were injected IP with either saline (control) or various concentrations of EX-2, EX-3, or EX-4 (treated). The temperature of the rats was measured every hr for 6 hr and the inhibition by EX-2, EX-3, or EX-4 of the rise in temperature due to IL-1β or LPS was determined.
In addition, treatment with 50 or 150 μg/kg EX-2 inhibited LPS-induced fever by 45% or 52%, respectively, when measured 6 hr following LPS injection. Furthermore, treatment with 150 μg/kg EX-3 or EX-4 inhibited LPS-induced fever by 57% and 52%, respectively (Table II).

[3] = system: inducible nitric oxide synthase (INOS); assay: Inducible nitric oxide synthase induction in rat aorta smooth muscle cells (cGMP RIA); format: cell-based; settings: RASMC; 0.1 or 1 μM EX-2 before LPS, IL-1β or TNF-α (not specified which)
Experimental: A. Inducible Nitric Oxide Synthase (INOS): Rat aorta smooth muscle cells (RASMC) were isolated from male rats (325-350 g) using the previously published procedures of Gelsterfer et al., Circ. Res. 62:749-756 (1988), which is incorporated herein by reference. Cells were positively identified as smooth muscle cells by indirect immunofluorescent staining for anti-α-actin, using a mouse anti-α-actin antibody and anti-mouse IgG FITC conjugate. Cells were grown in T-75 tissue culture flasks (Corning Delbelco's Glass, Inc.; Corning, N.Y.) in 50% F12 and 50% Delbelco's Modified Eagle Medium (DMEM) supplemented with 10% bovine serum, 0.2 g/l L-glutamine, penicillin (100 U/ml) and streptomycin (0.1 mg/ml).
Cells between passages 1-5 were pretreated with one of the following: vehicle, LPS (1 μg/ml), IL-1β (10 U/ml), or TNF-α (100 U/ml) for 6 hr. […] Accumulation of cGMP was determined following exposure to 0.3 mM 3-isobutyl-1-methyl xanthine (IBMX) in the presence or absence of 1 mM L-arginine. […] The HCl extract was analyzed for cGMP by RIA and the NaOH-solubilized cell remnants were used for protein determination.
Male Sprague-Dawley rats were anesthetized with 55 mg/kg pentobarbital IP. […] RASMC were incubated with plasma from control or EX-2-treated animals and the ability of plasma components to inhibit the induction of INOS by LPS or IL-1β was determined as above. […]

Ac-Nle-Gln-His-(D)Phe-Arg-(D)Trp-Gly-NH2 [EX-2]
Reduction in LPS-induced PMN Count [1]: 58% | Reduction in LPS-induced Fever ([2]; 50 μg/kg IP): 45% | Reduction in LPS-induced Fever ([2]; 150 μg/kg IP): 52% | % Reduction of induced increase in cGMP (pmol/100 mg/5 min), INOS [3]: 60%
